# Experimental data: patent publication US10802016B2, “Microdroplet based bioassay platform” (Northeastern University, priority 2015, dated 2020)
# Test system: DC
# Test: LPS induced IL-6 secretion from single dendritic cells in droplets
# Type: cell-based, mouse
# Conditions: single DC co-encapsulated with LPS; versus droplets with no LPS
# Text: FIG. 16A is a schematic illustration of […] carried out in a microdroplet.
# The activation and monitoring of live single cells for secretion and cell surface markers have been measured simultaneously. In particular, droplet based technology can be applied to simultaneously stimulate mouse DC maturation with an immunological adjuvant, lipopolysaccharide (LPS), and to monitor two phenotypic markers of DCs. The maturation phenotype of the live DC was followed by measuring CD86 expression and IL-6 secretion. DC were co-encapsulated with LPS and bioassay reagents (microsphere sensors and antibodies). This method made it possible to distinguish the responses of individual cells to LPS stimulation in the confined volume of droplets. In addition to CD86, LPS induced IL-6 secretion could be monitored from the same encapsulated single DCs (FIG. 16B). The signal was detected in droplets after 10 min in the array.
substance,measurement,value
lipopolysaccharide [LPS],IL-6 levels in droplets,significantly higher
